Reference: patent EP4775577A1, “RAS INHIBITOR” (Tyligand Bioscience (Shanghai) Limited, priority 2023, dated 2025)

Assays:
[1] = Pharmacokinetics in mice; details: mouse, in vivo, po, 20 mg/kg
[2] = test system: Ba/F3-KRAS-G12C-A59S; assay: Ba/F3 KRAS-mutant cell proliferation inhibition (CellCounting-Lite 2.0); format: cell-based; details: Mus musculus, BaF3, Ba/F3-KRAS-G12C-A59S (KC-2605), 72 h
Excerpt: (§1) This experiment evaluated the proliferation inhibitory activity of the compounds of the present invention against Ba/F3-KRAS mutant cell lines by using the CellCounting-Lite®2.0 method.
(§2) The following materials, reagents, and instruments were used in this experiment: Cells were all obtained from Kangyuan Bochuang Biotechnology (Beijing) Co., Ltd. RPMI-1640 (Hyclone, SH30809.01); fetal bovine serum (FBS) was used. (GIBCO, 10099-141); Phosphate-buffered saline (PBS) (Solarbio, P1020-500); CellCounting-Lite 2.0 Luminescent Cell Viability Assay (Vazyme, DD1101-02); 96-well plate (Absin, abs7016); Multifunctional microplate reader (BMG LABTECH, CLARIOstar® Plus); CO2 incubator (Thermo Scientific, Model 3100 Series).
(§3) All cell lines were cultured in complete medium at 37°C and 5% CO2. Cells in the logarithmic growth phase were harvested and counted using a platelet counter. Cell viability was assessed using the trypan blue exclusion method to ensure a viability of over 90%. Cell density was adjusted using complete medium (RPMI 1640+10% FBS) and then seeded into 96-well cell culture plates at 90 µL per well, for a total of 3000 cells. The cells in the 96-well plates were cultured at 37°C and 5% CO2. A 10-fold drug solution was prepared using complete medium, and then 10 µL of each serially diluted compound was transferred to the corresponding wells of the 96-well cell culture plate, with two replicates for each drug concentration. The cells in the drug-treated 96-well plates were cultured at 37°C and 5% CO2 for 72 h, followed by CellCounting-Lite 2.0 analysis.
(§4) The CellCounting-Lite 2.0 Luminescent Cell Viability Assay reagent was thawed and the cell plate was equilibrated to room temperature for 30 minutes. An equal volume of CellCounting-Lite 2.0 Luminescent Cell Viability Assay solution was added to each well and the plate was shaken on an orbital shaker for 5 minutes to lyse the cells. The cell plate was placed at room temperature for 20 minutes to stabilize the cryo-luminescence signal. The cryo-luminescence values were read and the data were collected.
(§5) Data was analyzed using GraphPad Prism 7.0 software. A nonlinear S-curve regression was used to fit the data to derive the dose-response curve, and the IC50 value was calculated from this curve. [formula]

[3] = test system: Ba/F3-KRAS-Q61H; assay: as above; format: cell-based; details: Mus musculus, BaF3, Ba/F3-KRAS-Q61H (KC-2620), 72 h
Excerpt: as §1, §2, §3, §4, §5

[4] = test system: Ba/F3-KRAS-G12C-Y96S; assay: as above; format: cell-based; details: Mus musculus, BaF3, Ba/F3-KRAS-G12C-Y96S (KC-2619), 72 h
Excerpt: as §1, §2, §3, §4, §5

[5] = test system: Ba/F3-KRAS-G 12V; assay: as above; format: cell-based; details: Mus musculus, BaF3, Ba/F3-KRAS-G 12V (KC-1261), 72 h
Excerpt: as §1, §2, §3, §4, §5

[6] = test system: Ba/F3-KRAS-G12R; assay: as above; format: cell-based; details: Mus musculus, BaF3, Ba/F3-KRAS-G12R (KC-2026), 72 h
Excerpt: as §1, §2, §3, §4, §5

[7] = test system: Ba/F3-KRAS-G12C-H95L; assay: as above; format: cell-based; details: Mus musculus, BaF3, Ba/F3-KRAS-G12C-H95L (KC-3683), 72 h
Excerpt: as §1, §2, §3, §4, §5

[8] = test system: Ba/F3-KRAS-G13D; assay: as above; format: cell-based; details: Mus musculus, BaF3, Ba/F3-KRAS-G13D (KC-1436), 72 h
Excerpt: as §1, §2, §3, §4, §5

[9] = test system: Ba/F3-KRAS-G12C-H95R; assay: as above; format: cell-based; details: Mus musculus, BaF3, Ba/F3-KRAS-G12C-H95R (KC-2618), 72 h
Excerpt: as §1, §2, §3, §4, §5

[10] = test system: Ba/F3-KRAS-G12S; assay: as above; format: cell-based; details: Mus musculus, BaF3, Ba/F3-KRAS-G12S (KC-2894), 72 h
Excerpt: as §1, §2, §3, §4, §5

[11] = test system: Ba/F3-KRAS-G12D; assay: as above; format: cell-based; details: Mus musculus, BaF3, Ba/F3-KRAS-G12D (KC-1259), 72 h
Excerpt: as §1, §2, §3, §4, §5

[12] = 0.05uM, read-out: Inhibition rate% @0.05uM
[13] = 1uM, read-out: Inhibition rate% @1uM

Work on CCN1CC/C(=C\F)[C@](C)(COc2nc(N3Cc4c(COC)c(C(=O)N(C)C)nn4CC[C@@H]3C)c3cc(Cl)c(-c4c(F)ccc5sc(N)c(C#N)c45)c(F)c3n2)C1 (single isomer, unassigned) [Example 228A] yielded an AUC(0-t) at 8 h [1] of 4130 ng·h/mL, an inhibition at 0.05 µM [2, 12] of 83.3% and an inhibition at 1 µM [2, 13] of 97.4%. It also gave an inhibition at 0.05 µM [3, 12] of 99.1%, an inhibition at 1 µM [3, 13] of 99.6% and an inhibition at 0.05 µM [4, 12] of 45.4%. It also gave an inhibition at 1 µM [4, 13] of 74.9%, an inhibition at 0.05 µM [5, 12] of 99.9% and an inhibition at 1 µM [5, 13] of 100%. It also gave an inhibition at 0.05 µM [6, 12] of 85.7%, an inhibition at 1 µM [6, 13] of 97.6% and an inhibition at 0.05 µM [7, 12] of 99.7%. It also gave an inhibition at 1 µM [7, 13] of 100%, an inhibition at 0.05 µM [8, 12] of 88.1% and an inhibition at 1 µM [8, 13] of 98.2%. It also gave an inhibition at 0.05 µM [9, 12] of 71.9%, an inhibition at 1 µM [9, 13] of 98.6% and an inhibition at 0.05 µM [10, 12] of 96.4%. It also gave an inhibition at 1 µM [10, 13] of 98.8%, an inhibition at 0.05 µM [11, 12] of 99.5% and an inhibition at 1 µM [11, 13] of 99.8%.
